What was measured:
ACE = biological target: T1, ACE (Oryctolagus cuniculus, UniProt P12822); test: Incubation of AM-A with metalloenzymes in Zn2+-depleted buffer; type: biochemical, rabbit; conditions: extended incubation, AM-A 0.5 mM
T1 construct: as well as ACE from rabbit lung; from tissue; host or cells: rabbit lung
T1 sequence (P12822 34-1310): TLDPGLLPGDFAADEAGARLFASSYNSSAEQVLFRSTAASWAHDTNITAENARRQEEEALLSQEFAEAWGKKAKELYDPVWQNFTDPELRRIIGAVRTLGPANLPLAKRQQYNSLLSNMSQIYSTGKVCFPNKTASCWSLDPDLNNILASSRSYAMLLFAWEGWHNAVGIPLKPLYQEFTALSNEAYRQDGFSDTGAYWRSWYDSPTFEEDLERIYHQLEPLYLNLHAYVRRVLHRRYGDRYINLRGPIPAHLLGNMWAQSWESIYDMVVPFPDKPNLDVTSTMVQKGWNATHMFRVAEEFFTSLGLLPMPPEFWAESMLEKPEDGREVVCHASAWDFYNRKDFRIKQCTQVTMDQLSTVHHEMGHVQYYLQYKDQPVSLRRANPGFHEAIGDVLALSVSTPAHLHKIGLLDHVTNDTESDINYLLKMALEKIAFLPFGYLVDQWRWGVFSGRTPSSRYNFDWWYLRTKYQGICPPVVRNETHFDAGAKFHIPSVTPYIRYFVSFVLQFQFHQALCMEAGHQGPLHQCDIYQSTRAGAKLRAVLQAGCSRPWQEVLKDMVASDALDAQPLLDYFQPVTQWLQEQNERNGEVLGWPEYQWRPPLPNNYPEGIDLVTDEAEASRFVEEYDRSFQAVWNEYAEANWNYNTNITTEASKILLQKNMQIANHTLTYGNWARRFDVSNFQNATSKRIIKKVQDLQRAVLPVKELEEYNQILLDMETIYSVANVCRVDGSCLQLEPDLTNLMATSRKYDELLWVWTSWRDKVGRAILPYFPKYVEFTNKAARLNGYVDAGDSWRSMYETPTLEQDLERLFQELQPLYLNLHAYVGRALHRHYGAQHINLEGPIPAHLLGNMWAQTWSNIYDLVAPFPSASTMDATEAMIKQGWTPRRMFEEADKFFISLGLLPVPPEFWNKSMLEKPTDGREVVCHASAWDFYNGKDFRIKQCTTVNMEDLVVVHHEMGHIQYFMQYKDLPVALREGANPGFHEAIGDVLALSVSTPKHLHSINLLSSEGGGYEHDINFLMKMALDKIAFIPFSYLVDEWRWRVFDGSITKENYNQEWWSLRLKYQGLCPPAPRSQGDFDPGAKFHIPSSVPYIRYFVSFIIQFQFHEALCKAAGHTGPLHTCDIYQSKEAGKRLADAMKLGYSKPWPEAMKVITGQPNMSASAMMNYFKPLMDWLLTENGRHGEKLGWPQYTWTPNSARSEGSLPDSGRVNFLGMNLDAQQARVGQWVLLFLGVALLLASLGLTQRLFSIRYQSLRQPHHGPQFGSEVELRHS
Description: Enzyme (500 nM) was incubated with AM-A (500 μM) for 10 minutes. 20 μL of the above was diluted with 180 μL nitrocefin or FAPGG substrate for the following final concentrations: Enzyme (50 nM), FAPGG (50 μM)/nitrocefin (20 μM), AM-A (50 μM). Buffer (50 mM HEPES pH 7.5, 300 mM NaCl) was stirred overnight with 2 g/100 mL Chelex-100 (Biorad; Richmond, Calif.). Assays were read in 96-well microplate format at 490 nm using a Spectramax reader (Molecular Devices) at 37° C.

K. pneumoniae N11-2218 = test: Mouse systemic infection, organ bacterial load; type: in vivo, CD1 mice
Source text: All animals were housed in specific pathogen-free units in the Central Animal Facility at McMaster University. All experimental protocols were approved by, and performed in accordance with the McMaster Animal Research Ethics Board. Female CD1 mice were purchased from Charles River.
Mice were infected intraperitoneally (ip) with a dose of 2×10^6 colony forming units (cfu) of Klebsiella pneumoniae N11-2218 for all organ bacterial load experiments, or with a dose of 5×10^7cfu for all survival experiments. For all organ bacterial load experiments, mice were euthanized 48 hours post infection, and spleen and liver were harvested. Organs were placed into 1 mL sterile PBS on ice, and then homogenized (Mixer Mill 400; Retsch). Organ homogenates were then serially diluted in PBS, and plated on Brilliant Green agar (Oxoid) for cfu enumeration. For survival curves, mice were monitored for endpoint. For all experiments, mice were treated 30 minutes post infection with a specified subcutaneous dose of either PBS, meropenem, AM-A inhibitor, or a combination of both antibiotic and inhibitor.

NDM-1 = NDM-1 (Klebsiella pneumoniae, UniProt C7C422); test: Reversibility assay (PD-10 column removal of AM-A); type: biochemical; parameters: All β-lactamase overexpression constructs were generated without the leader peptide in a pET-28b plasmid containing a N-terminal His Tag; His tag (N, cleaved yes); SUMO (implied by the use of SUMO protease) (N, cleaved yes); made in house; host or cells: E. coli BL21(DE3); conditions: after removal of AM-A by gel filtration (PD10 column)
Description: 5 mL NDM-1 (500 nM) was incubated either with AM-A (100 μM), or without, on ice for 1 hour. The no enzyme control was buffer alone (Chelex-treated 50 mM HEPES pH 7.5). 2.5 mL was passed through a PD-10 spin column (GE healthcare) following column equilibration with buffer and centrifuged at 2,000×g for 2 minutes. Pre-PD-10 (+AM-A, −AM-A, −NDM-1), Post-PD-10 ((+AM-A, −AM-A, −NDM-1), and nitrocefin were equilibrated to 30° C. 20 μL of the enzyme solution was added to 180 μL nitrocefin for final enzyme concentration of 50 nM, and nitrocefin of 100 μM and AM-A of 10 μM. Assays were read in 96-well microplate format at 490 nm using a Spectramax reader (Molecular Devices) for 1 hr at 30° C.

Sequence of NDM-1 (C7C422 29-270 limits assumed): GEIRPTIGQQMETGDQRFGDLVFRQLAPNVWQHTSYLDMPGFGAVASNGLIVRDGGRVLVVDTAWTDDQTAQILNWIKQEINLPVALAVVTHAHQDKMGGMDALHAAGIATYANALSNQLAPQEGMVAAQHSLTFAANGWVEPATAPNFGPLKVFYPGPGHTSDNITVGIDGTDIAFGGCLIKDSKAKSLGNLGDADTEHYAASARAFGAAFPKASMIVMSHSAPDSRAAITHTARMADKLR

Compound: N[C@H](CN[C@H](CN[C@@H](CC(=O)O)C(=O)O)C(=O)O)C(=O)O [AM-A, aspergillomarasmine A]
- inhibition at 500 µM (ACE): ~50%
- bacterial load in tissues (K. pneumoniae N11-2218; AM-A alone): unaffected
- bacterial load in the spleen (K. pneumoniae N11-2218; combination meropenem 10 mg/kg + AM-A 10 mg/kg, single dose, 48 hours post infection): significantly reduced
- reversibility of NDM-1 inhibition (NDM-1): irreversible inactivation
